Reference: ChEMBL document CHEMBL4007459, “Design of Potent mRNA Decapping Scavenger Enzyme (DcpS) Inhibitors with Improved Physicochemical Properties To Investigate the Mechanism of Therapeutic Benefit in Spinal Muscular Atrophy (SMA)” (J Med Chem, 2017)
In brackets after ≈: the same amount, converted by molar mass. Each block holds one molecule with its values, some of them ahead of it.

What was measured:
[1] = Apparent intrinsic clearance in human liver microsomes at 1 uM; assay type: ADME, microsome; conditions: read-out: CLH(app)
[2] = Lipophilicity, log D of the compound at pH 7.4; assay type: physicochemical; conditions: buffer
[3] = Drug uptake in lymphoblasts (unknown origin) at 10 nM in presence of vacuolar type ATPase inhibitor bafilomycin measured after […]; assay type: ADME, cell-based; conditions: lymphoblast, 0.01 µM
[4] = Stability in human liver microsomes at 1 uM; assay type: ADME, microsome; conditions: read-out: Stability
[5] = Drug uptake in lymphoblasts (unknown origin) at 10 nM in presence of vacuolar type ATPase inhibitor concanamycin A measured after […]; assay type: ADME, cell-based; conditions: lymphoblast, 0.01 µM
[6] = Kinetic solubility of the compound at pH 6.5; conditions: buffer
[7] = Drug uptake in HEK293 cells at 10 nM in presence of vacuolar type ATPase inhibitor concanamycin A measured after […]; assay type: ADME, cell-based; conditions: human, 0.01 µM
[8] = Apparent passive permeability across apical to basolateral side in RRCK2 cells at 2 uM; assay type: ADME, cell-based, Canis lupus familiaris; conditions: dog, MDCK
[9] = Drug uptake in HEK293 cells at 10 nM in presence of vacuolar type ATPase inhibitor bafilomycin measured after […]; assay type: ADME, cell-based; conditions: human, 0.01 µM
Dihydrofolate reductase = target: T1, Dihydrofolate reductase (Homo sapiens, UniProt P00374); assay: Inhibition of DHFR (unknown origin)
T1 sequence (P00374 whole entry): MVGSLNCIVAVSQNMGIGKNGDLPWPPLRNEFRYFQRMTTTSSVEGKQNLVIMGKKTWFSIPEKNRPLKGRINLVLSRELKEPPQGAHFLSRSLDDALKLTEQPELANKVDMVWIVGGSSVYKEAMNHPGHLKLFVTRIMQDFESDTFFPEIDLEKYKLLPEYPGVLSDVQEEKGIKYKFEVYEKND

m7GpppX diphosphatase = target: T2, m7GpppX diphosphatase (Homo sapiens, UniProt Q96C86)
T2 sequence (Q96C86 whole entry): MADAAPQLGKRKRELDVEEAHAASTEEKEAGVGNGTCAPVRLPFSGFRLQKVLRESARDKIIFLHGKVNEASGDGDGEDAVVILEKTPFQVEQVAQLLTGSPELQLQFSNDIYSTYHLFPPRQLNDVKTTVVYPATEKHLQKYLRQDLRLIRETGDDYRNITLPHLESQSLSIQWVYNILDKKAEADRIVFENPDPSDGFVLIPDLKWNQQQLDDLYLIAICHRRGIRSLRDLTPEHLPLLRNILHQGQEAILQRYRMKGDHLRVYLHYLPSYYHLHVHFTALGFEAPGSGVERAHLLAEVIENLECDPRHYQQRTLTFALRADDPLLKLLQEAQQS
Description: Inhibition of human DcpS assessed as increase in SMN2 promoter activity

[10] = Drug uptake in lymphoblasts (unknown origin) at 100 nM in presence of vacuolar type ATPase inhibitor concanamycin A measured after […]; assay type: ADME, cell-based; conditions: lymphoblast, 0.1 µM
[11] = Drug uptake in lymphoblasts (unknown origin) at 100 nM in presence of vacuolar type ATPase inhibitor bafilomycin measured after […]; assay type: ADME, cell-based; conditions: lymphoblast, 0.1 µM
[12] = Drug uptake in HEK293 cells at 100 nM in presence of vacuolar type ATPase inhibitor concanamycin A measured after […]; assay type: ADME, cell-based; conditions: human, 0.1 µM
[13] = Drug uptake in HEK293 cells at 100 nM in presence of vacuolar type ATPase inhibitor bafilomycin measured after […]; assay type: ADME, cell-based; conditions: human, 0.1 µM
Plasma = assay: Unbound fraction in FVB/N mouse plasma at 30 mg/kg, ip; assay type: ADME, organism-based; conditions: in vivo

IC50 (Dihydrofolate reductase): 38 µM
Structure (SMILES): Nc1nc(N)c2c(COc3cccc(Cl)c3)cccc2n1

IC50 (Dihydrofolate reductase): > 30 µM
Structure (SMILES): Nc1nc(N)c2c(COc3ccccc3F)cccc2n1

IC50 (Dihydrofolate reductase): 52 µM
microsomal CLint at 1 µM [1]: < 8.4 µL/min/mg
logD [2]: 1.9
Cp(f) (Plasma): 173 nM
half-life at 1 µM [4]: > 115 min
solubility kinetic [6]: 31 µM (≈ 9.59 µg/mL)
Papp A→B at 2 µM [8]: 13 ×10⁻⁶ cm/s
Structure (SMILES): N#Cc1cc(F)cc(OCc2cccc3nc(N)nc(N)c23)c1

IC50 (Dihydrofolate reductase): > 50 µM
Structure (SMILES): Nc1nc(N)c2c(COc3ccc(F)cc3F)cccc2n1

IC50 (Dihydrofolate reductase): 15 µM
Structure (SMILES): CC1(COc2cccc3nc(N)nc(N)c23)COC1

IC50 (Dihydrofolate reductase): > 150 µM
microsomal CLint at 1 µM [1]: < 8 µL/min/mg
logD [2]: 1.4
Drug uptake [3]: Not Active
half-life at 1 µM [4]: > 120 min
Drug uptake [5]: Not Active
solubility kinetic [6]: 274 µM (≈ 77.1 µg/mL)
Drug uptake [7]: Not Active
Papp A→B at 2 µM [8]: 18 ×10⁻⁶ cm/s
Drug uptake [9]: Not Active
Structure (SMILES): Cc1ncccc1OCc1cccc2nc(N)nc(N)c12

Drug uptake [3]: Not Active
Drug uptake [5]: Not Active
Drug uptake [7]: Not Active
Drug uptake [9]: Not Active
Structure (SMILES): Nc1nc(N)c2c(OCC3CCN(Cc4c(F)cccc4Cl)CC3)cccc2n1

IC50 (Dihydrofolate reductase): 0.63 µM
Structure (SMILES): Nc1nc(N)c2c(OCc3cc(F)cc(F)c3)cccc2n1

IC50 (Dihydrofolate reductase): > 50 µM
Structure (SMILES): Nc1nc(N)c2c(COc3cccc(F)c3)cccc2n1

More lines, now with the values behind:

Structure (SMILES): Nc1nc(N)c2c(OCC3CCN(Cc4c(Cl)cccc4Cl)CC3)cccc2n1
microsomal CLint at 1 µM [1]: > 250 µL/min/mg
logD [2]: 2.8
Drug uptake [3]: Not Active
half-life at 1 µM [4]: 3 min
Drug uptake [5]: Not Active
solubility kinetic [6]: 45 µM (≈ 19.5 µg/mL)
Drug uptake [7]: Not Active
Papp A→B at 2 µM [8]: 0.62 ×10⁻⁶ cm/s
Drug uptake [9]: Not Active

Structure (SMILES): Cc1cc(OCC2CCOCC2)c2c(N)nc(N)nc2c1
IC50 (m7GpppX diphosphatase): > 10 µM

Structure (SMILES): CCN(CC)CCCC(C)Nc1ccnc2cc(Cl)ccc12 (centres undefined) [CHLOROQUINE]
Drug uptake [10]: Not Active
Drug uptake [11]: Not Active
Drug uptake [12]: Not Active
Drug uptake [13]: Not Active

Structure (SMILES): COC[C@@H](C)Oc1cccc2nc(N)nc(N)c12
IC50 (Dihydrofolate reductase): 25 µM

Structure (SMILES): Nc1nc(N)c2c(OCC3CCN(Cc4ccccc4F)CC3)cccc2n1
Drug uptake [3]: Not Active
Drug uptake [5]: Not Active
Drug uptake [7]: Not Active
Drug uptake [9]: Not Active

Structure (SMILES): COC[C@H](C)Oc1cccc2nc(N)nc(N)c12
IC50 (Dihydrofolate reductase): 1.4 µM

Structure (SMILES): Nc1nc(N)c2c(OCC3CCOCC3)cccc2n1
IC50 (Dihydrofolate reductase): 28 µM

Structure (SMILES): Cc1cc(COc2cc(F)cc(C#N)c2)c2c(N)nc(N)nc2c1
IC50 (m7GpppX diphosphatase): > 10 µM
